According to patent publication US8071625B2, “Certain chemical entities, compositions, and methods” (Cytokinetics, Inc., priority 2006, dated 2011):

target: T1, crosslinked smooth muscle actomyosin (chicken gizzard smooth muscle myosin subfragment-1 crosslinked to cardiac or skeletal actin) (Gallus gallus, UniProt P10587); assay: Lead optimization pyruvate kinase/horseradish peroxidase/pyruvate oxidase-coupled ATPase assay (compound dose response); type: biochemical; conditions: read-out: IC50 Arithmetic Mean
T1 construct: chicken gizzard smooth muscle myosin subfragment-1; from tissue; host or cells: chicken gizzard
Outline: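 The ATPase used chicken gizzard smooth muscle myosin S1 chemically crosslinked to cardiac or skeletal actin, titrated to a set hydrolysis rate. It was coupled via pyruvate kinase/pyruvate oxidase/HRP in 12 mM K-PIPES pH 7.00 (22 °C) with 0.15 mM ATP, 2 mM MgCl2, 100 mM KCl and 0.1 mM Amplex Red. Fluorescence was read at ex 480/em 615 nm, and IC50 came from a 4-parameter fit.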

Row | IC50 [nM] | SMILES
1 | 1210 | CCc1ccc(NC(=O)OCCN(C)C(=O)CCc2ccccc2C(F)(F)F)cc1 [N-{2-[N-(4-ethylphenyl)carbamoyloxy]ethyl}-N-methyl-3-[2-(trifluoromethyl)phenyl]propanamide]
2 | 17400 | CCc1ccc(NC(=O)OCCNC(C)=O)cc1 [N-{2-[N-(4-ethylphenyl)carbamoyloxy]ethyl}acetamide]
3 | 148 | CCc1ccc(NC(=O)OC[C@H](C)N(C)C(=O)NCc2ccccc2Cl)cc1 [N-{(1S)-2-[N-(4-ethylphenyl)carbamoyloxy]-isopropyl}{[(2-chlorophenyl)methyl]amino}-N-methylcarboxamide]
4 | 1630 | CCc1ccc(NC(=O)OC[C@H](C)NC(=O)NCc2ccccc2Cl)cc1 [N-{(1S)-2-[N-(4-ethylphenyl)carbamoyloxy]-isopropyl}{[(2-chlorophenyl)methyl]amino}carboxamide]
5 | 198 | CCc1ccc(NC(=O)OCC[C@H](C)N(C)C(=O)NCc2ccccc2Cl)cc1 [N-{(1S)-3-[N-(4-ethylphenyl)carbamoyloxy]-1-methylpropyl}{[(2-chlorophenyl)methyl]amino}-N-methylcarboxamide]
6 | 440 | NCC(=O)N1CCC(COC(=O)Nc2ccc(C(F)(F)F)cc2Cl)(C(=O)NCc2ccccc2Cl)CC1 [[1-(2-aminoacetyl)-4-({N-[2-chloro-4-(trifluoromethyl)phenyl]carbamoyloxy}methyl)(4-piperidyl)]-N-[(2-chlorophenyl)methyl]carboxamide]
7 | 285 | NCC(=O)N1CCC(COC(=O)Nc2ccc(C(F)(F)F)cc2)(C(=O)NCc2ccccc2Cl)CC1 [[1-(2-aminoacetyl)-4-({N-[4-(trifluoromethyl)phenyl]carbamoyloxy}methyl)(4-piperidyl)]-N-[(2-chlorophenyl)methyl]carboxamide]
8 | 3240 | N#Cc1ccccc1CNC(=O)C1(COC(=O)Nc2ccc(C(F)(F)F)cc2)CCN(C(=O)CN)CC1 [[1-(2-aminoacetyl)-4-({N-[4-(trifluoromethyl)phenyl]carbamoyloxy}methyl)(4-piperidyl)]-N-[(2-cyanophenyl)methyl]carboxamide]
9 | 1970 | Cc1ccc(NC(=O)OCC2(C(=O)NCc3ccccc3Cl)CCN(C(=O)CN)CC2)cc1C(F)(F)F [[1-(2-aminoacetyl)-4-({N-[4-methyl-3-(trifluoromethyl)phenyl]carbamoyloxy}methyl)(4-piperidyl)]-N-[(2-chlorophenyl)methyl]carboxamide]
10 | 138 | N[C@@H](CO)C(=O)N1CCC(COC(=O)Nc2ccc(C(F)(F)F)cc2)(C(=O)NCc2ccccc2Cl)CC1 [[1-((2S)-2-amino-3-hydroxypropanoyl)-4-({N-[4-(trifluoromethyl)phenyl]carbamoyloxy}methyl)(4-piperidyl)]-N-[(2-chlorophenyl)methyl]carboxamide]
11 | 346 | CCc1ccc(NC(=O)OCCN(CCCCN)C(=O)NCc2ccccc2Cl)cc1 [[2-(N-(4-aminobutyl){[(2-chlorophenyl)methyl]amino}carbonylamino)ethoxy]-N-(4-ethylphenyl)carboxamide]
12 | 210 | CCc1ccc(NC(=O)OCCN(CCO)C(=O)NCc2ccccc2Cl)cc1 [[2-({[(2-chlorophenyl)methyl]amino}-N-(2-hydroxyethyl)carbonylamino)ethoxy]-N-(4-ethylphenyl)carboxamide]
13 | 8520 | CCc1ccc(NC(=O)OC(C)CN(C)C(=O)NCc2ccccc2Cl)cc1 (centres unmarked) [[2-({[(2-chlorophenyl)methyl]amino}-N-methylcarbonylamino)-isopropoxy]-N-(4-ethylphenyl)carboxamide]
14 | 88 | CCc1ccc(NC(=O)OCC2(C(=O)NCc3cccc(Cl)c3Cl)CCN(C(=O)CN)CC2)cc1 [[(1-(2-aminoacetyl)-4-{N-[(2,3-dichlorophenyl)methyl]carbamoyl}(4-piperidyl))methoxy]-N-(4-ethylphenyl)carboxamide]
15 | 284 | NCC(=O)N1CCC(COC(=O)Nc2ccc(C(F)(F)F)cc2)(C(=O)NCc2cccc(Cl)c2Cl)CC1 [[(1-(2-aminoacetyl)-4-{N-[(2,3-dichlorophenyl)methyl]carbamoyl}(4-piperidyl))methoxy]-N-[4-(trifluoromethyl)phenyl]carboxamide]
16 | 164 | CCc1ccc(NC(=O)OCC2(C(=O)NCc3cccc(F)c3F)CCN(C(=O)CN)CC2)cc1 [[(1-(2-aminoacetyl)-4-{N-[(2,3-difluorophenyl)methyl]carbamoyl}(4-piperidyl))methoxy]-N-(4-ethylphenyl)carboxamide]
17 | 197 | CCc1ccc(NC(=O)OCC2(C(=O)NCc3ccc(Cl)cc3Cl)CCN(C(=O)CN)CC2)cc1 [[(1-(2-aminoacetyl)-4-{N-[(2,4-dichlorophenyl)methyl]carbamoyl}(4-piperidyl))methoxy]-N-(4-ethylphenyl)carboxamide]
18 | 576 | CCc1ccc(NC(=O)OCC2(C(=O)NCc3ccc(C)cc3C)CCN(C(=O)CN)CC2)cc1 [[(1-(2-aminoacetyl)-4-{N-[(2,4-dimethylphenyl)methyl]carbamoyl}(4-piperidyl))methoxy]-N-(4-ethylphenyl)carboxamide]
19 | 146 | CCc1ccc(NC(=O)OCC2(C(=O)NCc3ccccc3Br)CCN(C(=O)CN)CC2)cc1 [[(1-(2-aminoacetyl)-4-{N-[(2-bromophenyl)methyl]carbamoyl}(4-piperidyl))methoxy]-N-(4-ethylphenyl)carboxamide]
20 | 158 | CCc1ccc(NC(=O)OCC2(C(=O)NCc3ccc(F)cc3Cl)CCN(C(=O)CN)CC2)cc1 [[(1-(2-aminoacetyl)-4-{N-[(2-chloro-4-fluorophenyl)methyl]carbamoyl}(4-piperidyl))methoxy]-N-(4-ethylphenyl)carboxamide]
21 | 951 | CCc1ccc(NC(=O)OCC2(C(=O)NCc3ccccc3CC)CCN(C(=O)CN)CC2)cc1 [[(1-(2-aminoacetyl)-4-{N-[(2-ethylphenyl)methyl]carbamoyl}(4-piperidyl))methoxy]-N-(4-ethylphenyl)carboxamide]
22 | 9440 | CCc1ccc(NC(=O)OCC2(C(=O)NCc3cccnc3C)CCN(C(=O)CN)CC2)cc1 [[(1-(2-aminoacetyl)-4-{N-[(2-methyl(3-pyridyl))methyl]carbamoyl}(4-piperidyl))methoxy]-N-(4-ethylphenyl)carboxamide]
23 | 99 | CCc1ccc(NC(=O)OCC2(C(=O)NCc3cccc(Cl)c3F)CCN(C(=O)CN)CC2)cc1 [[(1-(2-aminoacetyl)-4-{N-[(3-chloro-2-fluorophenyl)methyl]carbamoyl}(4-piperidyl))methoxy]-N-(4-ethylphenyl)carboxamide]
24 | 370 | NCC(=O)N1CCC(COC(=O)Nc2ccc(C(F)(F)F)cc2)(C(=O)NCc2cccc(Cl)c2F)CC1 [[(1-(2-aminoacetyl)-4-{N-[(3-chloro-2-fluorophenyl)methyl]carbamoyl}(4-piperidyl))methoxy]-N-[4-(trifluoromethyl)phenyl]carboxamide]
25 | 83 | CCc1ccc(NC(=O)OCC2(C(=O)NCc3cccc(Cl)c3C)CCN(C(=O)CN)CC2)cc1 [[(1-(2-aminoacetyl)-4-{N-[(3-chloro-2-methylphenyl)methyl]carbamoyl}(4-piperidyl))methoxy]-N-(4-ethylphenyl)carboxamide]
26 | 179 | Cc1c(Cl)cccc1CNC(=O)C1(COC(=O)Nc2ccc(C(F)(F)F)cc2)CCN(C(=O)CN)CC1 [[(1-(2-aminoacetyl)-4-{N-[(3-chloro-2-methylphenyl)methyl]carbamoyl}(4-piperidyl))methoxy]-N-[4-(trifluoromethyl)phenyl]carboxamide]
